This note sets out measurements from patent US20240294478A1, “ANTI-CANCER COMPOUNDS AND METHODS OF USE” (YALE UNIVERSITY, priority 2021, published 2024).

Experiment [1] relates to LN229 MGMT−/MMR+ flank tumors. Kind of experiment: Murine flank tumor model, LN229 MGMT-/MMR+. It counts as in vivo, mouse. Conditions: 5 mg/kg MWF x 3 weeks, P.O. An excerpt: FIGS. 9A-91: KL-50 is safe and efficacious on both MGMT−/MMR+ and MGMT−/MMR-flank tumors over a wide range of treatment regimens and conditions. […] (FIG. 9C) Mean body weight of mice during LN229 flank tumor experiments. (FIG. 9D) Kaplan-Meier analysis of LN229 MGMT−/MMR− xenograft flank tumor-bearing mice to determine survival rate based on death, removal from study if mouse body weight loss exceeded 20% of initial body weight, or if tumor volume exceeded 2000 mm^3. […] (FIGS. 9H-91) Xenograft LN229 MGMT−/MMR+ and LN229 MGMT−/MSH6—flank tumors with a larger average starting tumor size of −400 mm^3 and −350 mm^3 respectively, treated with 3 weekly cycles of P.O administration of 10% cyclodextrin (n=4) or KL-50 (n=4, 3 cycles of 25 mg/kg on Monday, Wednesday, and Friday). The study period was limited by control groups which had to be euthanized for exceeding the ethical maximum allowed tumor size, thus ending the study. In all panels, points, mean; error bars, SEM; *, P<0.05; **, P<0.01; ***, P<0.001; ****, P<0.0001; ns, not significant.
Mouse Protocols for Flank Studies. A mouse tumor model was established by subcutaneously implanting human LN229 (MGMT−/MMR+) or LN229 (MGMT−/MMR−) cells. […] During the final centrifugation, viability was determined using trypan blue exclusion. […]

For a further experiment, the system named is LN229 MGMT− shMSH6 cells. Kind of experiment: Short-term viability assay, LN229 MGMT- shMSH6. It counts as cell-based, human. Conditions: for IC50: Homo sapiens, LN-229, Table III, read-out: IC50 against LN229 cell lines, MGMT− MMR−; for MGMT− RI: Table III. The method, then:
The activity of KL-50 in MGMT-LN229 cells engineered to lack expression of other key MMR proteins including MSH6, MLH1, PMS2, and MSH3 was also confirmed. Western blotting was performed in LN229 MGMT+/−cells with stable expression of shRNA targeting MSH6, MLH1, PMS2, or MSH3 to confirm depletion of the shRNA targets. In shMSH6 cells, there was reduced expression of MSH2, and in shMLH1 cells, there was loss of PMS2, due to destabilization in the setting of loss of their heterodimeric partners. GAPDH serves as loading control. […] Short-term viability assay curves for KL-50 in LN229 MGMT+/−, MMR+/shMSH6 cells. […] Short-term viability assay curves for KL-50 in LN229 MGMT+/−, MMR+/shMLH1 cells. […] Short-term viability assay curves for KL-50 in LN229 MGMT+/−, MMR+/shPMS2 cells. […] Short-term viability assay curves for KL-50 in LN229 MGMT+/−, MMR+/shMSH3 cells.
MMR Protein shRNA Knockdown. pGIPZ lentiviral shRNA vectors targeting MSH2, MSH6, MLH1, PMS2, and MSH3 were purchased from Horizon Discovery (Table IV). Lentiviral particles were produced in HEK293T cells via co-transfection with lentiviral shRNA plasmid, pCMV-VSV-G envelope plasmid (Addgene, #8454) and psPAX2 packaging plasmid (Addgene, #12260), using Lipofectamine 3000 Reagent (Invitrogen, L3000001) per manufacturer's protocol. Viral particles were harvested 48 h post-transfection and used to transduce LN229 MGMT+/−cells in the presence of 8 μg/mL polybrene. Selection of pooled cells with lentiviral expression was established with 1 μg/mL puromycin 48 h post-transduction for 3 to 4 days. Single cell cloning was performed by limiting dilution and protein knockdown was confirmed by western blotting.
Short-term Cell Viability Assay. Cells were seeded in 96-well plates at 1000 or 2000 cells/well and allowed to adhere at 23° C. for 60 min and then incubated overnight at 37° C. Cells were treated with indicated concentrations of compounds in triplicate for 4-6 days prior to fixation with 3.7% paraformaldehyde and nuclear staining with 1 μg/mL Hoechst 33342 dye. Cells were imaged on a Cytation 3 imaging reader (BioTek) and quantified using CellProfiler software. For in vitro short-term growth delay experiments, IC50 values were determined from the nonlinear regression equation, [inhibitor] vs normalized response with variable slope.

The IC50 is the point on the concentration scale where inhibition reaches its midpoint. `NC(=O)c1ncn2c(=O)n(CCF)nnc12` [KL-50]: in experiment [1], the “tumor growth, MGMT−/MMR+ flank tumors” value is “statistically non-inferior to TMZ”. In addition, in the experiment with LN229 MGMT− shMSH6 cells, the IC50 came out at 6.6 ± 0.4 µM and the “MGMT− RI” value is listed as 0.5.

For the compound `Cn1nnc2c(C(N)=O)ncn2c1=O` [TMZ, 4-methyl-5-oxo-2,3,4,6,8-pentazabicyclo[4.3.0]nona-2,7,9-triene-9-carboxamide, reference compound], the “tumor growth, MGMT−/MMR+ flank tumors” value in experiment [1] is “suppressed tumor growth”. Further, in the experiment with LN229 MGMT− shMSH6 cells, the half-inhibitory concentration (IC50) stood at 950 ± 68 µM and the “MGMT− RI” value was 186.
